From publication PMC6222706, “Evaluation of the Antioxidant and Neuroprotectant Activities of New Asymmetrical 1,3-Diketones” (Molecules : A Journal of Synthetic Chemistry and Natural …, 2018)

Assays:
[1] = test system: SH-SY5Y cells; assay: Intracellular ROS levels (DCFH2-DA) in SH-SY5Y cells under H2O2; type: cell-based, human
Experimental: Oxidative stress increases ROS levels, which may cause cell damage and death. Therefore, ROS production caused by H2O2 was evaluated in cells pretreated with or without derivatives 6b and 7b. In these studies, DFCH-DA method was used to measure by fluorescence the ROS intracellular levels, under two different compound treatment regimens. […] From both experiments, it could be concluded that 6b and 7b reduce intracellular ROS, and that longer treatment period seems to be needed to achieve a better ROS reduction.
Intracellular ROS levels were determined using dichlorofluorescein diacetate (DCFH2-DA) according to Wang et al.. DCFH2-DA is cleaved by intracellular esterases and oxidized by ROS to form the fluorescent compound DCF, which measure represents the ROS level. So, 3 × 10^3 SH-SY5Y cells were seeded in 96 well plates and after 24 h, treated with the test compound for an additional 24 h. […] After the incubation period, cells were washed twice with Hanks buffer and loaded with 20 µM DCFH2-DA (in FBS-free culture medium) for 40 min in dark at 37 °C in a CO2 incubator. At the end of the dye incubation period, they were washed twice with Hanks buffer to remove the extracellular DCFH2-DA. Fluorescence was measured with a Varioskan microplate reader at 485 nm excitation and 535 nm emission wavelength. Results are expressed as the percentage of fluorescent increase compared with that of the control. All the experiments were performed at least three times by quadruplicate for each compound concentration.

[2] = Iron chelation capacity (Fe^+2-ferrozine complex); type: biochemical; details: aqueous media; for Fe^2+ binding capacity: 50 µM compound; for Fe^2+ chelating capacity: 200 µM compound
Experimental: To decrease the level of free Fe^2+ that can reduce H2O2 to the ^•OH radical and produce other ROS, it is worth to evaluate the iron chelation capacity of new potential AOX compounds as potential new therapeutic agents against neurodegenerative diseases. […] In this assay ferrozine form complexes with Fe^+2 in a quantitative manner, and in the presence of chelating compounds this complex is disrupted.
The iron chelation capacity was determined according to the method of Dinis et al., using ferrous chloride instead of ferrous sulfate. In this method, ferrozine can form complexes with a ferrous ion in a quantitative way yielding a red color with maximum absorbance at 562 nm. In the presence of other iron chelators, a decoloration is observed due to the competition with ferrozine for the metal. The assay was carried out in a 96 well plate. Serial dilutions of test compound (0, 5, 10, 25, 50, 100, 150, 200 µM) were dispensed (180 µL) into each well and then 10 µL of FeCl2 1 mM were added (final FeCl2 concentration, […]). After shaking the plate for 1 min, 10 µL of Ferrozine 2 mM were added. The mixture was shaken thoroughly and left to stand for 20 min at room temperature. The absorbance was measured at 562 nm with a Varioskan microplate reader. […] The compound iron chelation activity was calculated as the percentage of inhibition of the Fe^+2-Ferrozine complex by the formula in Equation (3):%Inhibition = {(Ao − As)/Ao} × 100(3) where Ao is the absorbance of the control, and As is the absorbance in the presence of the test compound. EDTA was used as a positive control. All the experiments were performed three times by quadruplicate for each compound concentration.

[3] = ABTS radical scavenging assay; type: biochemical; details: for IC50: 30 min incubation, EtOH, absorbance at 734 nm; for ABTS-TEAC100: Trolox Equivalent Antioxidant Capacity vs 100 µM solution of the substance, from ABTS assay
Experimental: ABTS^+ radical was produced by reacting 2,2′-azino-bis-3-ethylbenzthiazoline-6-sulphonic acid (ABTS) 7 mM with K2S2O8 2.45 mM, both reactants dissolved in water, and at the volume ratio of 1:1. The mixture was stored in the dark at room temperature for 16 h. The ABTS^+ solution was diluted to give an absorbance of 0.750 ± 0.025 at 734 nm in EtOH. All the compounds tested were dissolved in EtOH. 150 µL of each compound solution was added to the wells of the 96-well plate, followed by the addition of 50 µL of the ABTS^+ radical solution. Final compound concentrations tested were 0, 5, 10, 20, 50, 100, 150, 200 µM. The absorbance change at 734 nm was recorded after 30 min incubation in the dark, and the percentage of radical scavenging was calculated for each concentration relative to a blank containing no scavenger. The degree of decolorization was calculated as the percentage reduction of absorbance. The ABTS^+ radical scavenging activity was calculated as follows: Percentage ABTS^+ radical scavenging activity = {1 − [As/Ac]} × 100(1) where As is the absorbance of the ABTS^+ radical solution containing samples and Ac the absorbance of the control solution without antioxidant. The percentages of ABTS^+ radical reduced were plotted against compound concentration. Trolox was used as a reference antioxidant. All the assays were carried out three times by quadruplicate for each compound.

[4] = test system: SH-SY5Y cells; assay: SH-SY5Y neuroprotection assay against H2O2 (MTT); type: cell-based, human; details: compound 5-50 µM for 24 h, then 200 µM H2O2 for 24 h
Experimental: For neuroprotection experiments, SH-SY5Y cells were treated with test compound at different concentrations (5, 10, 20, 30, 40, and 50 µM) for 24 h. After the incubation period, cells were exposed to H2O2 200 µM for 24 h. At the end of the treatment, cell viability was measure with MTT.
Compound neuroprotection under H2O2-induced oxidative stress was assessed by MTT assay. Briefly, SH-SY5Y were seeded into 96-well plates at a density of 3 × 10^3 cells/well and grown in the incubator for 24 h. Cells were pretreated for 24 h with different compound concentrations (5, 10, 20, 30, 40, 50 µM). After the treatment period, cells were exposed to 200 µM H2O2 for 24 h. Cell viability was measured with MTT following the same procedure described above. Cell viability was expressed as the percentage of the control value (cells without treatment with H2O2).

[5] = FRAP (Ferric Reducing Antioxidant Power) assay; type: biochemical; details: for FRAP-TEAC100: Trolox Equivalent Antioxidant Capacity vs 100 µM solution of the substance, from FRAP assay; for FRAP Assay (%) at 100 µM / FRAP Assay (%) at 200 µM: 30 min, 593 nm
Experimental: The assay was carried out according to the method of Benzie et al. with slight modifications, in a 96-well microplate. FRAP reagent was prepared by mixing 10 mL of 300 mM acetate buffer with 1 mL of 10 mM 2,4,6-tripyridyl-S-triazine (TPTZ) in HCl 40 mM and 1mL of FeCl3·6H2O 20 mM. Firstly, 190 µL of the FRAP reagent were added to all wells of the 96-well plate, followed by the addition to the well of 10 µL of the test compounds dissolved in Ethanol to reach the final concentrations assayed (0, 5, 10, 20, 50, 100, 150, 200 µM). After 30 min incubation in the dark, the absorbance was read at 593 nm. Trolox was used as assay control. Three different assays were carried out by quadruplicate for each compound.

[6] = 6 h compound treatment followed by 2 h 500 µM H2O2
[7] = 24 h compound treatment prior to 400 µM H2O2 for 4 h

| Structure (SMILES) | Intracellular ROS level [1, 6] | Intracellular ROS level [1, 7] | Fe^2+ binding capacity [2] | Fe^2+ chelating capacity [2] | IC50 [3] [µM] | ABTS-TEAC100 [3] | Cell viability after H2O2 (neuroprotection) [4] | FRAP-TEAC100 [5] | FRAP Assay (%) at 100 µM [5] [%] | FRAP Assay (%) at 200 µM [5] [%] |
| --- | --- | --- | --- | --- | --- | --- | --- | --- | --- | --- |
| O=C(/C=C(O)/C=C/c1cc(F)c(O)cc1F)C(F)(F)F [Compound 6b, (3Z,5E)-6-(2,5-difluoro-4-hydroxyphenyl)-1,1,1-trifluoro-4-hydroxyhexa-3,5-dien-2-one] | significant ROS level decrease | significant ROS level reduction | 7–8% | 25–26% | 116 ± 11 | 0.67 | significantly improved | 0.15 | 6.7 | 11.3 |
| O=C(/C=C(O)/C=C/c1ccc(O)c(F)c1F)C(F)(F)F [Compound 7b, (3Z,5E)-6-(2,3-Difluoro-4-hydroxyphenyl)-1,1,1-trifluoro-4-hydroxyhexa-3,5-dien-2-one] | significant ROS level decrease | significant ROS level reduction | 7–8% | 25–26% | 70.9 ± 5.8 | 0.62 | significantly improved | 0.16 | 8.8 | 15.3 |
